In brackets after ≈: the same amount, converted by molar mass.
Legend:
Assay type in all cases: cell-based
[1] = system: Aspergillus fumigatus AF210; test: MIC, YAG medium; conditions: 24 h at 35° C, MIC banded into grades; for MIC: Aspergillus fumigatus, read-out: MIC grade, A. fumigatus 210
How it was run: (§1)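 Broth microdilution in YAG medium tests compound over 50-0.05 mg/L against spores at 1−2×10^4 cfu/mL. After 24 h incubation at 35° C, optical density at 485 nm gives growth, and the MIC is the lowest concentration reducing it by more than 70% relative to untreated control.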

Aspergillus niger [2] = test: MIC, YAG medium; conditions: 24 h at 35° C, MIC banded into grades; for MIC: Aspergillus niger, read-out: MIC grade, A. niger
How it was run: as §1

Aspergillus terreus AT4 [3] = test: MIC, YAG medium; conditions: 24 h at 35° C, MIC banded into grades; for MIC: Aspergillus terreus, read-out: MIC grade, A. terreus
How it was run: as §1

Aspergillus terreus AT49 [4] = test: MIC, YAG medium; conditions: 24 h at 35° C, MIC banded into grades; for MIC: Aspergillus terreus, read-out: MIC grade, A. terreus 49
How it was run: as §1

[5] = system: Aspergillus fumigatus AF293; test: MIC, YAG medium; conditions: 24 h at 35° C, MIC banded into grades; for MIC: Aspergillus fumigatus, read-out: MIC grade, A. fumigatus
How it was run: as §1

Aspergillus flavus [6] = test: MIC, YAG medium; conditions: 24 h at 35° C, MIC banded into grades; for MIC: Aspergillus flavus, 24 h, read-out: MIC grade, A. flavus
How it was run: as §1

Candida glabrata = test: MIC, RPMI medium; conditions: 24-48 h at 35° C., >80% growth inhibition, banded into grades; for MIC: Nakaseomyces glabratus
How it was run: (§2)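 Broth microdilution in RPMI medium with 2% glucose and 0.135 M MOPS (pH 7.0); compounds as doubling dilutions over 50-0.05 mg/L, inoculum 1−2×10^4 cfu/mL. Plates incubated 24-48 h at 35° C; OD 485 nm read, MIC being lowest concentration giving >80% growth inhibition versus drug-free control.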

[7] = system: Aspergillus fumigatus AF210; test: MIC, RPMI medium; conditions: for MIC grade, A. fumigatus 210: MIC banded into grades; for MIC: Aspergillus fumigatus, AF210, MIC banded into grades, read-out: MIC grade, A. fumigatus 210
How it was run: as §2

Candida parapsilosis = test: MIC, RPMI medium; conditions: 24-48 h at 35° C., >80% growth inhibition, banded into grades; for MIC: Lodderomyces parapsilosis
How it was run: as §2

Aspergillus niger [8] = test: MIC, RPMI medium; conditions: MIC banded into grades; for MIC: Aspergillus niger, read-out: MIC grade, A. niger
How it was run: as §2

Aspergillus terreus AT4 [9] = test: MIC, RPMI medium; conditions: for MIC grade, A. terreus: MIC banded into grades; for MIC: Aspergillus terreus, AT4, MIC banded into grades, read-out: MIC grade, A. terreus
How it was run: as §2

Candida tropicalis = test: MIC, RPMI medium; conditions: 24-48 h at 35° C., >80% growth inhibition, banded into grades; for MIC: Candida tropicalis
How it was run: as §2

Aspergillus terreus AT49 [10] = test: MIC, RPMI medium; conditions: for MIC grade, A. terreus 49: MIC banded into grades; for MIC: Aspergillus terreus, AT49, MIC banded into grades, read-out: MIC grade, A. terreus 49
How it was run: as §2

[11] = system: Aspergillus fumigatus AF293; test: MIC, RPMI medium; conditions: for MIC grade, A. fumigatus: MIC banded into grades; for MIC: Aspergillus fumigatus, AF293, MIC banded into grades, read-out: MIC grade, A. fumigatus
How it was run: as §2

Aspergillus flavus [12] = test: MIC, RPMI medium; conditions: MIC banded into grades; for MIC: Aspergillus flavus, read-out: MIC grade, A. flavus
How it was run: as §2

Candida albicans = test: MIC, RPMI medium; conditions: 24-48 h at 35° C., >80% growth inhibition, banded into grades; for MIC: Candida albicans
How it was run: as §2

Candida krusei = test: MIC, RPMI medium; conditions: 24-48 h at 35° C., >80% growth inhibition, banded into grades; for MIC: Pichia kudriavzevii
How it was run: as §2

| MIC [1] | MIC (Aspergillus niger [2]) | MIC (Aspergillus terreus AT4 [3]) | Compound | MIC grade, A. fumigatus 210 [1] | MIC grade, A. niger (Aspergillus niger [2]) | MIC grade, A. terreus (Aspergillus terreus AT4 [3]) | MIC grade, A. terreus 49 (Aspergillus terreus AT49 [4]) | MIC grade, A. fumigatus [5] | MIC grade, A. flavus (Aspergillus flavus [6]) | Candida MIC, C. glabrata (Candida glabrata) | MIC grade, A. fumigatus 210 [7] | Candida MIC, C. parapsilosis (Candida parapsilosis) | MIC grade, A. niger (Aspergillus niger [8]) | MIC grade, A. terreus (Aspergillus terreus AT4 [9]) | Candida MIC, C. tropicalis (Candida tropicalis) | MIC grade, A. terreus 49 (Aspergillus terreus AT49 [10]) | MIC grade, A. fumigatus [11] | MIC grade, A. flavus (Aspergillus flavus [12]) | Candida MIC, C. albicans (Candida albicans) | Candida MIC, C. krusei (Candida krusei) | also measured |
| --- | --- | --- | --- | --- | --- | --- | --- | --- | --- | --- | --- | --- | --- | --- | --- | --- | --- | --- | --- | --- | --- |
| – | – | – | COCCn1c(C)cc(-c2ccccc2)c1C(=O)C(=O)Nc1ccc(N2CCN(c3ccc(CN4CCOCC4)cn3)CC2)cc1 [Example 103, 2-[1-(2-Methoxy-ethyl)-5-methyl-3-pheny-1H-pyrrol-2-yl]-N-{4-[4-(5-morpholin-4-ylmethyl-pyridin-2-yl)-piperazin-1-yl]-phenyl}-2-oxo-acetamide] | 3 (A grade of 3 represents an MIC of less than 1 mg/L) | 1 (a grade of 1 represents an MIC of greater than 10 mg/L) | 2 (A grade of 2 represents an MIC of from 1 to 10 mg/L) | 2 (A grade of 2 represents an MIC of from 1 to 10 mg/L) | 3 (A grade of 3 represents an MIC of less than 1 mg/L) | 1 (a grade of 1 represents an MIC of greater than 10 mg/L) | 3 (A grade of 3 represents an MIC of less than 1 mg/L) | 2 (A grade of 2 represents an MIC of from 1 to 10 mg/L) | 3 (A grade of 3 represents an MIC of less than 1 mg/L) | 3 (A grade of 3 represents an MIC of less than 1 mg/L) | 2 (A grade of 2 represents an MIC of from 1 to 10 mg/L) | 3 (A grade of 3 represents an MIC of less than 1 mg/L) | 2 (A grade of 2 represents an MIC of from 1 to 10 mg/L) | 2 (A grade of 2 represents an MIC of from 1 to 10 mg/L) | 1 (a grade of 1 represents an MIC of greater than 10 mg/L) | 3 (A grade of 3 represents an MIC of less than 1 mg/L) | 3 (A grade of 3 represents an MIC of less than 1 mg/L) | – |
| < 1 µg/mL | < 1 µg/mL | < 1 µg/mL | C=C(C)CN1CCN(c2ccc(NC(=O)C(=O)c3c(-c4ccccc4)cc(C)n3CCOC)c(F)c2)CC1 [Example 109, N-{2-Fluoro-4-[4-(2-methyl-allyl)-piperazin-1-yl]-phenyl}-2-[1-(2-methoxy-ethyl)-5-methyl-3-phenyl-1H-pyrrol-2-yl]-2-oxo-acetamide] | – | – | – | – | – | – | – | – | – | – | – | – | – | – | – | – | – | MIC (Aspergillus terreus AT49 [4]): < 1 µg/mL; MIC [5]: < 1 µg/mL; MIC (Aspergillus flavus [6]): < 1 µg/mL; MIC (Candida glabrata): < 1 µg/mL; MIC [7]: < 1 µg/mL; MIC (Candida parapsilosis): < 1 µg/mL; MIC (Aspergillus niger [8]): < 1 µg/mL; MIC (Aspergillus terreus AT4 [9]): < 1 µg/mL; MIC (Candida tropicalis): 1 to 10 µg/mL (≈ 1.93 to 19.3 µM); MIC (Aspergillus terreus AT49 [10]): < 1 µg/mL; MIC [11]: < 1 µg/mL; MIC (Aspergillus flavus [12]): < 1 µg/mL; MIC (Candida albicans): < 1 µg/mL; MIC (Candida krusei): < 1 µg/mL |
| – | – | – | CCOC(=O)Cn1ccc(-c2ccccc2)c1C(=O)C(=O)Nc1ccc(N2CCN(c3cc(C)cc(C)n3)CC2)cc1 [Example 73, (2-{4-[4-(4,6-Dimethyl-pyridin-2-yl)-piperazin-1-yl]-phenylaminooxalyl}-3-phenyl-pyrrol-1-yl)-acetic acid ethyl ester] | 3 (A grade of 3 represents an MIC of less than 1 mg/L) | 3 (A grade of 3 represents an MIC of less than 1 mg/L) | 1 (a grade of 1 represents an MIC of greater than 10 mg/L) | 2 (A grade of 2 represents an MIC of from 1 to 10 mg/L) | 3 (A grade of 3 represents an MIC of less than 1 mg/L) | 1 (a grade of 1 represents an MIC of greater than 10 mg/L) | 3 (A grade of 3 represents an MIC of less than 1 mg/L) | 3 (A grade of 3 represents an MIC of less than 1 mg/L) | 2 (A grade of 2 represents an MIC of from 1 to 10 mg/L) | 3 (A grade of 3 represents an MIC of less than 1 mg/L) | 1 (a grade of 1 represents an MIC of greater than 10 mg/L) | 3 (A grade of 3 represents an MIC of less than 1 mg/L) | 1 (a grade of 1 represents an MIC of greater than 10 mg/L) | 3 (A grade of 3 represents an MIC of less than 1 mg/L) | 1 (a grade of 1 represents an MIC of greater than 10 mg/L) | 2 (A grade of 2 represents an MIC of from 1 to 10 mg/L) | 2 (A grade of 2 represents an MIC of from 1 to 10 mg/L) | – |
| 1 to 10 µg/mL (≈ 1.75 to 17.5 µM) | > 10 µg/mL | 1 to 10 µg/mL (≈ 1.75 to 17.5 µM) | COCCn1ccc(-c2ccc(Cl)cc2)c1C(=O)C(=O)Nc1ccc(N2CCN(c3cc(C)cc(C)n3)CC2)cc1 [Example 59, 2-[3-(4-Chloro-phenyl)-1-(2-methoxy-ethyl)-1H-pyrrol-2-yl]-N-{4-[4-(4,6-dimethyl-pyridin-2-yl)-piperazin-1-yl]-phenyl}-2-oxo-acetamide] | – | – | – | – | – | – | – | – | – | – | – | – | – | – | – | – | – | MIC (Aspergillus terreus AT49 [4]): 1 to 10 µg/mL (≈ 1.75 to 17.5 µM); MIC [5]: 1 to 10 µg/mL (≈ 1.75 to 17.5 µM); MIC (Aspergillus flavus [6]): > 10 µg/mL; MIC (Candida glabrata): < 1 µg/mL; MIC [7]: 1 to 10 µg/mL (≈ 1.75 to 17.5 µM); MIC (Candida parapsilosis): < 1 µg/mL; MIC (Aspergillus niger [8]): > 10 µg/mL; MIC (Aspergillus terreus AT4 [9]): > 10 µg/mL; MIC (Candida tropicalis): < 1 µg/mL; MIC (Aspergillus terreus AT49 [10]): > 10 µg/mL; MIC [11]: 1 to 10 µg/mL (≈ 1.75 to 17.5 µM); MIC (Aspergillus flavus [12]): > 10 µg/mL; MIC (Candida albicans): < 1 µg/mL; MIC (Candida krusei): 1 to 10 µg/mL (≈ 1.75 to 17.5 µM) |

— patent US8993574B2, “Pyrrole antifungal agents” (F2G Ltd, priority 2008, dated 2015)
